Source: ChEMBL document CHEMBL3046157, “Synthesis of new N-arylamino(2-furyl)methylphosphonic acid diesters, and in vitro evaluation of their cytotoxicity against esophageal cancer cells” (Med Chem Res, 2013)

Columns and labels:
KYSE-270 = assay: Cytotoxicity against Homo sapiens (human) KYSE-270 cells assessed as inhibition of cell survival after 24 hr by MTT assay; format: functional, cell-based; conditions: KYSE-270, 24 h
[1] = Cytotoxicity against Homo sapiens (human) KYSE-150 cells assessed as inhibition of cell survival after 24 hr by MTT assay; format: functional, cell-based; conditions: KYSE-150, 24 h
[2] = Cytotoxicity against Homo sapiens (human) KYSE-30 cells assessed as inhibition of cell survival after 24 hr by MTT assay; format: functional, cell-based; conditions: KYSE-30, 24 h
[3] = Cytotoxicity against Homo sapiens (human) HET-1A cells assessed as inhibition of cell survival after 24 hr by MTT assay; format: cell-based

| SMILES | IC50 (KYSE-270) [µM] | IC50 [1] [µM] | IC50 [2] [µM] | IC50 [3] [µM] |
| --- | --- | --- | --- | --- |
| COc1ccccc1NC(c1ccco1)P(=O)(OC)OC (centres undefined) | 77.4 | 51.3 | 38 | > 400 |
| COc1ccc(NC(c2ccco2)P(=O)(OC)OC)cc1 (centres undefined) | 224 | 166 | 316 | > 400 |
| COc1ccc(NC(c2ccco2)P(=O)(Oc2ccccc2)Oc2ccccc2)cc1 (centres undefined) | 205 | 209 | > 400 | > 400 |
| Cc1ccccc1NC(c1ccco1)P(=O)(Oc1ccccc1)Oc1ccccc1 (centres undefined) | > 400 | > 400 | 251 | > 400 |
| Cc1cccc(NC(c2ccco2)P(=O)(Oc2ccccc2)Oc2ccccc2)c1 (centres undefined) | > 400 | > 400 | 380 | > 400 |
| Cc1ccc(NC(c2ccco2)P(=O)(Oc2ccccc2)Oc2ccccc2)cc1 (centres undefined) | > 400 | > 400 | > 400 | > 400 |
| COc1cccc(NC(c2ccco2)P(=O)(OCc2ccccc2)OCc2ccccc2)c1 (centres undefined) | 251 | 200 | 251 | > 400 |
| Cc1cccc(/N=C/c2ccco2)c1 [N-FURFURYLIDENE-M-TOLUIDINE] | 111 | 50.1 | 158 | > 400 |
| COc1ccccc1/N=C/c1ccco1 [N-FURFURYLIDENE-O-ANISIDINE] | > 400 | > 400 | > 400 | > 400 |
| COc1ccc(/N=C/c2ccco2)cc1 [N-FURFURYLIDENE-P-ANISIDINE] | > 400 | > 400 | > 400 | > 400 |
| Cc1ccc(/N=C\c2ccco2)cc1 [N-FURFURYLIDENE-P-TOLUIDINE] | 398 | 380 | > 400 | > 400 |
